IC50, water solubility and therapeutic index data for 18 compounds are collected here from patent publication US7816346B2, “Analogs of ansamycin and pharmaceutical compositions thereof” (priority 2006, dated 2010).

Read-outs that look alike come from different tables or passages of the source.

Data set [1] relates to MX-1 (human breast carcinoma) cells. As to the kind of experiment: in vitro growth inhibition, cytotoxicity assay (Promega CellTiter Blue Cell Viability Assay). The format is cell-based. The settings on record: read-out: IC50, μM MX-1. The procedure: After 24 hrs., cells were exposed to various concentrations of compound in DMSO and cultured for another 72 hrs. 100 ul of media were removed and 20 ul of Promega CellTiter Blue reagent were added to each well and shaken to mix. […] The fluorescence produced is proportional to the number of viable cells. After plotting fluorescence produced against drug concentration, the IC50 was calculated as the […] of the resulting non-linear regression.

The conditions of data set [2]: cited from earlier work.
For a further data set, the system named is cellular growth. The settings on record: read-out: concentration that inhibited cellular growth 50% in comparison with untreated controls; cited from earlier work.
The test system of a further data set is HSV-1. The note with it: cited from earlier work.
[3] abbreviates: MX-1 cells, 72 hrs exposure, CellTiter Blue.

With “18-N-(2-Furo)amide-21-hydroxylgeldanamycin [Compound 10]”, the IC50 in data set [1] (setting [3]) was 7.2 µM.
As to “18-N-(2-Trifluoro)benzamide-21-hydroxylgeldanamycin [Compound 4]”, the IC50 in data set [1] (setting [3]) worked out at 0.68 µM.
On to “18-N-(3,4-Dichloro)benzamide-21-hydroxylgeldanamycin [Compound 9]”, for which the IC50 in data set [1] (setting [3]) came out at 0.8 µM.
The same measure, in the same setting: then “18-N-(3,4-Dichloro)benzamide-21-methoxylgeldanamycin [Compound 70]”, with 12.4 µM; and “18-N-(4-Cyano)benzamide-21-hydroxylgeldanamycin [Compound 7]”, with 0.13 µM; and “18-N-(4-Fluoro)benzamide-21-hydroxylgeldanamycin [Compound 8]”, with 2 µM.
For “18-N-(4-Methoxy)benzamide-21-hydroxylgeldanamycin [Compound 5]”, in data set [1] (setting [3]), the IC50 was 0.29 µM.
On to “18-N-(4-Nitro)benzamide-21-hydroxylgeldanamycin [Compound 3]”, for which the IC50 in data set [1] (setting [3]) stood at 0.42 µM.
As to “18-N-(4-Phenyl)benzamide-21-hydroxylgeldanamycin [Compound 6]”, the IC50 in data set [1] (setting [3]) worked out at 0.081 µM.
Take “18-N-Benzamide-21-hydroxylgeldanamycin [Compound 1]”: in data set [1] (setting [3]), the IC50 is 1.9 µM.
With “18-N-Benzylcarbamate-21-hydroxylgeldanamycin [Compound 16]”, the IC50 in data set [1] (setting [3]) worked out at 0.088 µM.
Turning to “18-N-Benzylurea-21-hydroxylgeldanamycin [Compound 49]”, the IC50 in data set [1] (setting [3]) stood at 2.4 µM.
Same read-out and setting: then “18-N-Lauramide-21-hydroxylgeldanamycin [Compound 2]”, with 1.3 µM; and “18-N-iso-Nicotinamide-21-hydroxylgeldanamycin [Compound 11]”, with 0.1 µM; and `C=CC(=O)Nc1cc2c(O)c(c1OC)CC(C)CC(OC)C(O)C(C)C=C(C)C(OC(N)=O)C(OC)C=CC=C(C)C(=O)N2` (centres unmarked) [Compound 12, 18-N-Acrylamide-21-hydroxylgeldanamycin], with 15.3 µM.
As for `C=CCNC1=C2C[C@@H](C)C[C@H](OC)[C@H](O)[C@@H](C)/C=C(\C)[C@H](OC(N)=O)[C@@H](OC)/C=C\C=C(/C)C(=O)NC(=CC1=O)C2=O` [Compound 17-AAG, 17-allylaminogeldanamycin, reference compound], the IC50 in data set [1] (Homo sapiens, MX1, 72 h) was determined as 1.7 µM. Also, the water solubility result in data set [2] is given as “limited aqueous solubility”.
On to `COc1c(NS(=O)(=O)c2ccc(C(F)(F)F)cc2)cc2c(O)c1CC(C)CC(OC)C(O)C(C)C=C(C)C(OC(N)=O)C(OC)C=CC=C(C)C(=O)N2` (centres unmarked) [Compound 29, 18-N-(4-trifluoromethylbenzene)sulfamide-21-hydroxylgeldanamycin], for which, in data set [1] (setting [3]), the IC50 was determined as 0.078 µM.
As to `COC1=C2C[C@@H](C)C[C@H](OC)[C@H](O)[C@@H](C)/C=C(\C)[C@H](OC(N)=O)[C@@H](OC)/C=C\C=C(/C)C(=O)NC(=CC1=O)C2=O` [GA, Geldanamycin], the IC50 in data set [1] (Homo sapiens, MX1, MX-1 cells, 72 hrs exposure, CellTiter Blue) is 0.5 µM; in the data set on cellular growth, 350000 nM; in the data set on HSV-1 (in vitro, read-out: 50% inhibitory concentration, HSV-1 replication in vitro), 93 nM. In data set [2], the water solubility entry is reported as “poor water solubility”. For the same compound, in the data set on HSV-1 (cellular growth vs HSV-1 replication), the therapeutic index result is reported as “over 3700”.
